Assay results: US20230365583A1, “FUSED TRICYCLIC PYRIMIDINE-THIENO-PYRIDINE SMALL MOLECULE INHIBITORS OF UBIQUITIN-SPECIFIC PROTEASE 28” (Dana-Farber Cancer Institute, Inc., priority 2020, published 2023)

biological target: T1, USP28 (Homo sapiens (Human), UniProt Q96RU2); assay: Competitive activity-based protein profiling (Ub-VME labeling, Western blot) in K562 cell lysate; assay type: binding; conditions: K562 cells lysed, treated with compound for 1 h followed by incubation with Ub-VME; Western blot (FIG. 2)
T1 sequence (Q96RU2 whole entry): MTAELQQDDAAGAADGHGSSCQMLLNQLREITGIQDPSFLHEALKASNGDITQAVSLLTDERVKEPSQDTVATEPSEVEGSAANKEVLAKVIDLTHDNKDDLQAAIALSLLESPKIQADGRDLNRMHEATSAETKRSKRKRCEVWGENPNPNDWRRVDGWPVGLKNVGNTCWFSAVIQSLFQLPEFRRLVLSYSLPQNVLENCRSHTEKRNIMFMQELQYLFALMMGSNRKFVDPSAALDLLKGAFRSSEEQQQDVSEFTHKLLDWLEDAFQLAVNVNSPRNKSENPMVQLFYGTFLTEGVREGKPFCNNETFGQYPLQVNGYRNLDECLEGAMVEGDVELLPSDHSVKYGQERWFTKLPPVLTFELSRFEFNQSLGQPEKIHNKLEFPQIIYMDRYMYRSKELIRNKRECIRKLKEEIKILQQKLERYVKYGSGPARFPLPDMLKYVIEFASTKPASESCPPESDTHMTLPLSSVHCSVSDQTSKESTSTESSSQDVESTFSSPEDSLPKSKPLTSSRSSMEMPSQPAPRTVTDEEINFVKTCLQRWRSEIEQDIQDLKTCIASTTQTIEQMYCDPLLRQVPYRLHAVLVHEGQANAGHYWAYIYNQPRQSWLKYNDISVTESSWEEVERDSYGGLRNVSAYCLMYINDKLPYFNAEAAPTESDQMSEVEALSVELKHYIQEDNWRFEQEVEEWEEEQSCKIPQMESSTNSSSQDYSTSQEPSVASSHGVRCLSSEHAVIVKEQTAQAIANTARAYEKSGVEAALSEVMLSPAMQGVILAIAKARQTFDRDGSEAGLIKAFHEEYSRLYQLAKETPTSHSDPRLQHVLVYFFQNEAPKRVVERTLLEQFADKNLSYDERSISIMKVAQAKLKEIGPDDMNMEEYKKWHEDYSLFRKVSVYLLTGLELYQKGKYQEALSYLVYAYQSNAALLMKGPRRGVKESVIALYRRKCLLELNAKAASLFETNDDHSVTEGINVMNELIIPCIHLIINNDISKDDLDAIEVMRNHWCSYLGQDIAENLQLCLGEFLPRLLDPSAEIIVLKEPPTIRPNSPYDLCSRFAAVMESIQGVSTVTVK
Procedure: K562 cells were lysed and treated with indicated concentrations of compound 1 for 1 h followed by incubation with Ub-VME. Ub-VME covalently modifies USP28, resulting in higher MW band observed by Western blot.
Cells were pelleted, washed with PBS buffer, lysed on ice (20 mM Tris pH 8, 150 mM NaCl, 1% NP-40, 10% glycerol, 1 mM TCEP, phosphatase inhibitor cocktails (Sigma P5726 and Calbiochem 524624), and protease inhibitors (pepstatin, leupeptin, PMSF, and aprotinin), and clarified by centrifugation. Protein content was quantified by BCA and diluted to 2 mg/mL in lysis buffer. Compounds were added at desired concentrations and incubated at room temperature for 30 minutes. Samples were then supplemented with 2 uM HA-Ub-VS and incubated at room temperature with shaking for 15 minutes. Reactions were quenched with 4×LDS sample buffer (Thermo Fisher B0007) supplemented with 10% BME, vortexed vigorously, and heated to 95° C. for 5 minutes. Samples were resolved by SDS-PAGE and analyzed by Western blot with the indicated antibodies.

Structure (SMILES) | Target engagement: labeling of USP28 by covalent Ub-VME probe
CCCc1nc2sc3c(NCCc4ccc(OC)c(OC)c4)ncnc3c2c2c1CCC2 [Compound 1] | prevents labeling of USP28 by the covalent Ub-VME probe

biological target: T1, USP28; assay: Ubiquitin-Rhodamine110 assay; assay type: biochemical; conditions: USP28 at 1 nM; 30 minutes pre-incubation at room temperature; Ubiquitin-Rho110 substrate 125 nM
Procedure: USP28 (at 1 nM) was pre-incubated with different concentrations of inhibitors or DMSO as a control in 50 mM Tris pH 8, 50 mM NaCl, 0.002% Tween-20, 5 mM DTT. Compounds and protein were incubated for 30 minutes at room temperature prior to the addition of Ubiquitin-Rho110 (Boston Biochem) substrate for a final concentration of 125 nM. The initial rate of the reaction was measured by collecting fluorescence data at one-minute interval over 30-minute period using a Clariostar® fluorescence plate reader at excitation and emission wavelength of 485 nm and 535 nm, respectively. The calculated initial rate values were plotted against inhibitor concentrations to determine IC50s. All the experimental data were plotted using GraphPad Prism®.

Structure (SMILES) | IC50 [µM]
CCCc1nc2sc3c(NCCc4ccc(OC)c(OC)c4)ncnc3c2c2c1CCC2 [Compound 1] | < 1
CCCc1nc2sc3c(NCc4ccco4)ncnc3c2c2c1CCC2 [Compound 2] | < 1
CCCc1nc2sc3c(NC4CCCCC4)ncnc3c2c2c1CCC2 [Compound 3] | 10 to 100
CCCc1nc2sc3c(NCCc4ccc(Cl)c(Cl)c4)ncnc3c2c2c1CCC2 [Compound 4] | 10 to 100
COc1ccc(CCNc2ncnc3c2sc2ncccc23)cc1OC [Compound 6] | 1 to 10
CCCc1nc2sc3c(N(C)CCc4ccc(OC)c(OC)c4)ncnc3c2c2c1CCC2 [Compound 7] | 10 to 100
CCCc1nc2sc3c(NCCc4cccc(OC)c4)ncnc3c2c2c1CCC2 [Compound 11] | 10 to 100
CCCc1nc2sc3c(NCCc4ccc5c(c4)OCCO5)ncnc3c2c2c1CCC2 [Compound 13] | 1 to 10
CCCc1nc2sc3c(NCCCc4ccc(OC)c(OC)c4)ncnc3c2c2c1CCC2 [Compound 14] | 10 to 100
CCCc1nc2sc3c(NCCc4cc(OC)c(OC)c(OC)c4)ncnc3c2c2c1CCC2 [Compound 16] | 1 to 10
CCCc1nc2sc(C(=O)NCCc3ccc(OC)c(OC)c3)c(N)c2c2c1CCC2 [Compound 18] | < 1
CCCc1nc2sc3c(NCCc4ccc(N5CCNCC5)cc4)ncnc3c2c2c1CCC2 [Compound 19] | < 1
CCCc1nc2sc(C(=O)NCCc3ccc(N4CCNCC4)cc3)c(N)c2c2c1CCC2 [Compound 21] | < 1
Cc1ccc2c(N)c(C(=O)NCCc3ccc(C4CCNCC4)cc3)sc2n1 [Compound 22] | < 1
Cc1ccc2c(N)c(C(=O)NCCc3ccc(C4CC5CCC(C4)N5)cc3)sc2n1 (centres unmarked) [Compound 23] | < 1
Cc1ccc2c(N)c(C(=O)NCCc3ccc(C4CC5CCC(C4)N5C(=O)OC(C)(C)C)cc3)sc2n1 (centres unmarked) [Compound 24] | < 1
COc1ccc(CCNC(=O)c2sc3nc4c(c(C)c3c2N)CCC4)cc1OC [Compound 26] | < 1
CCCc1nc2oc(C(=O)NCCc3ccc(OC)c(OC)c3)c(N)c2c2c1CCC2 [Compound 27] | < 1
Cc1ccc2c(N)c(C(=O)NCCc3ccc(N4CCNCC4)cc3)sc2n1 [Compound 30] | < 1
CCCc1nc2sc(C(=O)NCC(C)c3ccc(OC)c(OC)c3)c(N)c2c2c1CCC2 (centres unmarked) [Compound 36] | < 1
CCCc1nc2sc(C(=O)NC(C)Cc3ccc(OC)c(OC)c3)c(N)c2c2c1CCC2 (centres unmarked) [Compound 37] | < 1
CCCc1ccc2c(n1)sc1c(NCCc3ccc4c(c3)OCCO4)ncnc12 [Compound 39] | < 1
CCCc1ccc2c(n1)sc1c(NCCc3ccc(N(C)C)cc3)ncnc12 [Compound 42] | < 1
CCCc1ccc2c(n1)sc1c(NCC(C)c3ccc(OC)c(OC)c3)ncnc12 (centres unmarked) [Compound 43] | < 1
CCCc1nc2sc(C(=O)N[C@@H](C)Cc3ccc(OC)cc3)c(N)c2c2c1CCC2 [Compound 47] | < 1
CCCCCc1nc2sc3c(NCCc4ccc(OC)c(OC)c4)ncnc3c2c2c1CCC2 [Compound 48] | < 1
CCCCCc1nc2sc(C(=O)NCCc3ccc(OC)c(OC)c3)c(N)c2c2c1CCC2 [Compound 49] | < 1
CCCc1nc2sc(C(=O)N[C@H](C)Cc3ccc(OC)cc3)c(N)c2c2c1CCC2 [Compound 50] | < 1

Continued, values first:

IC50 [µM] | Structure (SMILES)
> 100 | CCCc1nc2sc3c(NCc4ccc(Cl)c(Cl)c4)ncnc3c2c2c1CCC2 [Compound 5]
1 to 10 | COc1ccc(CCNc2ncnc3c2sc2ncc4c(c23)CCC4)cc1OC [Compound 8]
< 1 | CCCc1nc2sc3c(NCc4ccc(OC)c(OC)c4)ncnc3c2c2c1CCC2 [Compound 9]
< 1 | CCCc1nc2sc3c(NCCc4ccc(OC)cc4)ncnc3c2c2c1CCC2 [Compound 10]
< 1 | CCCc1nc2sc3c(NCCc4ccc(N(C)C)cc4)ncnc3c2c2c1CCC2 [Compound 12]
1 to 10 | CCCc1nc2sc3c(NCCc4c[nH]c5ccccc45)ncnc3c2c2c1CCC2 [Compound 15]
< 1 | CCCc1nc2sc3c(NCCc4cccs4)ncnc3c2c2c1CCC2 [Compound 17]
< 1 | COc1ccc(CCNC(=O)c2sc3nc(C)ccc3c2N)cc1OC [Compound 20]
< 1 | COc1ccc(CCNC(=O)c2sc3nc(C)c4c(c3c2N)CCC4)cc1OC [Compound 25]
< 1 | CCCc1ccc2c(N)c(C(=O)NCCc3ccc(OC)c(OC)c3)sc2n1 [Compound 28]
< 1 | CCCc1nc2sc(C(=O)NCCc3ccc(OC)c(OC)c3)c(NC(C)=O)c2c2c1CCC2 [Compound 29]
< 1 | Cc1ccc2c(N)c(C(=O)NCCc3ccc(N4CCN(C(=O)OC(C)(C)C)CC4)cc3)sc2n1 [Compound 31]
< 1 | CCCc1nc2sc(C(=O)NCCc3ccc(O)c(O)c3)c(N)c2c2c1CCC2 [Compound 32]
< 1 | CCCc1nc2sc(C(=O)NCCc3ccc(OC)c(OC)c3)c(NCc3ccccc3)c2c2c1CCC2 [Compound 33]
< 1 | CCCc1nc2sc(C(=O)NCCc3ccc(OC)c(OC)c3)c(N)c2cc1C(=O)N(C)C [Compound 35]
< 1 | CCCc1ccc2c(n1)sc1c(NCCc3ccc(OC)c(OC)c3)ncnc12 [Compound 38]
< 1 | CCCc1nc2sc(C(=O)NC[C@H](C)c3ccccc3)c(N)c2c2c1CCC2 [Compound 40]
< 1 | CCCc1nc2sc(C(=O)NC[C@@H](C)c3ccccc3)c(N)c2c2c1CCC2 [Compound 41]
1 to 10 | CCCc1nc2sc3c(OCCc4ccc(OC)c(OC)c4)ncnc3c2c2c1CCC2 [Compound 44]
< 1 | CCCc1nc2sc3c(NCCc4ccc(OC)c(OC)c4)ncnc3c2c2c1CCCC2 [Compound 45]
< 1 | CCCc1nc2sc(C(=O)NCCc3ccc(OC)c(OC)c3)c(N)c2c2c1CCCC2 [Compound 46]
